Values joined by “and” are separate entries in the source; they are usually repeats but may differ in a detail not shown here. Equal values may be shown once. Read-outs that look alike come from different tables or passages of the source.
Experiments:
alpha-synuclein [1] = target: T1, alpha-synuclein (Homo sapiens, UniProt P37840); assay: Nanopore analysis of alpha-synuclein (blockade current histograms); format: binding; conditions: 1 micromolar alpha-synuclein, 20 micromolar compound; for nanopore profile (bumping peak / binding): FIG. 3
Experimental: The bifunctional molecules were characterized by four different methods. […] If the compound causes a more compact conformation, then the alpha-synuclein can no longer translocate and it simply bumps into the pore giving rise to a very small change in the blockade current.^44-46
(§1) Nanopore analysis and isothermal titration calorimetry were performed as described previously.^21,54

[2] = tested on: alpha-synuclein-GFP aggregation in yeast strain 2AS; format: cell-based; conditions: 1 micromolar compound, 5 mM galactose; for AS-GFP foci / fluorescence pattern: up to 12 hours
Experimental: (§2) Third, the drugs were assayed in a yeast model of Parkinson's Disease, which expresses an alpha-synuclein-Green Fluorescent Protein (AS-GFP) construct under the control of a galactose promoter.
For Analysis of AS-GFP distribution, the 2AS strain was grown overnight in drop-out media. After normalization of culture density, galactose was administered to a final concentration of 5 mM. […] For the yeast recovery assay, yeast cells were obtained after 6 hours induction with 5 mM galactose concentration, washed in galactose free media and the compounds were added to a final concentration of 1 micromolar in a 2 mL reaction mixture. The culture was incubated at 30° C. for 3, 6, and 9 hour intervals. Images were obtained at each interval using an Olympus Infinity (BX51) fluorescence microscope at 100× magnification.

[3] = tested on: preformed alpha-synuclein-GFP foci in yeast strain 2AS; assay: Yeast recovery assay, fluorescence microscopy of preformed AS-GFP foci; format: cell-based; conditions: for effect on preformed large foci of alpha-synuclein: compound added 6 hours after induction with 5 mM galactose
Experimental: For Analysis of AS-GFP distribution, the 2AS strain was grown overnight in drop-out media. After normalization of culture density, galactose was administered to a final concentration of 5 mM. Fluorescence images were obtained at zero time, 3 hours, 6 hours, 9 hours and 12 hours. For the yeast recovery assay, yeast cells were obtained after 6 hours induction with 5 mM galactose concentration, washed in galactose free media and the compounds were added to a final concentration of 1 micromolar in a 2 mL reaction mixture. The culture was incubated at 30° C. for 3, 6, and 9 hour intervals. Images were obtained at each interval using an Olympus Infinity (BX51) fluorescence microscope at 100× magnification.

[4] = tested on: alpha-synuclein in substantia nigra; assay: Immunohistochemistry of alpha-synuclein in substantia nigra of ASIA-treated rats; format: in vivo, rat; conditions: 7 days of chronic injections
Experimental: (§3) male Sprague-Dawley rats are used (200 g-300 g). All animals are handled ethically following approved protocols. For the first round of studies, rats are divided into five treatment groups:
(§4) Rats are subjected to 7-day chronic injection of 3 mg/kg of each test compound, and a forced swim test is conducted after the seventh day to measure motor deficits. […] For a second round of studies, rats are divided into four treatment groups, and the same experiments were repeated:
(§5) Tissue sections of substantia nigra from each of the treatment groups in the rat studies were evaluated for the presence of tyrosine hydroxylase, DNA (using the nuclear stain DAPI) and alpha-synuclein using immunohistochemistry. After behavioural tests were completed, the rats were euthanized, perfused and fixed in 4% paraformaldehyde. 40 μm brain slices were utilized for the immunohistochemistry procedure. Anti-Tyrosine Hydroxylase—a primary antibody for tyrosine positive neurons, host species rabbit, Millipore, Sigma Aldrich. DAPI—nuclear stain already pre-conjugated (NucBlue Fixed Cell Stain ReadyProbe reagent, Thermo Fisher Scientific). Anti-Alpha Synuclein—primary antibody for Anti-Synuclein, host species mouse, Abcam. Primary antibodies were diluted 1:500. Alexa Fluoro 488 Donkey anti-rabbit IgG—secondary antibody with fluorescent tag, Invitrogen, Thermo Fisher Scientific. Alexa Fluoro 594 Goat anti-mouse IgG—secondary antibody with fluorescent tag, Life Technologies, Thermo Fisher Scientific. Secondary antibodies were diluted 1:1000. Thioflavin S—stain for alpha-synuclein aggregates, Sigma Aldrich. Thioflavin S stock concentration at 5 mg/ml. Final dilution 1:100.
Tyrosine hydroxylase is a marker for dopaminergic neurons and is used to confirm that the desired cells are being imaged. DAPI (4′,6-diamidino-2-phenylindole) is a stain that binds to A-T rich regions in DNA, and is used to identify cell nuclei. Thioflavin S is used to stain aggregated proteins such as amyloid plaques. A higher level of staining with thioflavin S is indicative of a higher degree of protein aggregation.

yeast strain 2AS = assay: Yeast recovery assay, growth of 2AS after 6 hours galactose induction; format: cell-based
alpha-synuclein [5] = target: T1, alpha-synuclein; assay: Isothermal titration calorimetry (ITC) binding to alpha-synuclein; conditions: for increase of Ka for a 10-fold decrease in ionic strength: 100 mM KCl versus 1.0M KCl; for # Binding sites: Table 2; for Bind to N and C?: binds to both N and C portions of alpha-synuclein; for binding constants as measured by ITC, order of magnitude: summary statement; for Kd: read-out: Ka (converted); for Bind to N and C?: key: Y indicates yes; N indicates no
Experimental: as §1

[6] = tested on: protein aggregation in substantia nigra; assay: Thioflavin S staining of substantia nigra of ASIA-treated rats; format: in vivo, rat
Experimental: as §4
as §5, with “Thioflavin S stock concentration at 5 mg/ml. Final dilution 1:100.” left out

[7] = tested on: yeast strain 2AS (2 copies of AS-GFP gene); format: cell-based
Experimental: as §2
Construction of the 1AS and 2AS strains has been described in detail previously.^55 Strains were grown in YPD supplemented with 30 μg/ml of all amino acids. The OD600 was adjusted to 0.05 in drop-out media (no uracil) at 30° C. Drugs were dissolved in methanol at 0.01 micromolar, 0.1 micromolar, 1 micromolar or 10 micromolar followed by addition of 100 micromolar or 5 mM galactose to a final volume of 10 mL.

[8] = tested on: male Sprague-Dawley rats with increased alpha-synuclein expression; assay: Forced swim test in ASIA-treated rats; format: in vivo, rat; conditions: for success in forced swim test / vigor in forced swim test: last three minutes of the test
Experimental: as §3, §4
The forced swim test is carried out by immersing the rat in water that is sufficiently deep to force the rat to swim. The forced swim test is scored based on the following criteria:
Vigor and success are measures of motor function. Immobility is thought to be a measure of depression.^59 Based on videos of the forced swim test, the amount of time that each rat was motionless was calculated as a form of scoring depression for each treatment. Statistical analysis was carried out using an ordinary one-way ANOVA and Tukey multiple comparisons test.

alpha-synuclein [9] = target: T1, alpha-synuclein; conditions: 10 micromolar compound, shown previously; cited from earlier work
WT yeast = assay: Yeast growth curves (OD600), toxicity of drugs on WT yeast; format: cell-based; parameters: effect on growth of WT yeast: dose or concentration left out as unconfirmed; conditions: for effect on growth of WT yeast: no alpha-synuclein
[10] = 1 micromolar compound added after 6 hours of 5 mM galactose and wash
[11] = ITC in 1.0M KCl, bifunctional molecules (or monomers) per alpha-synuclein molecule, best fit
[12] = 1 micromolar compound + 5 mM galactose
[13] = 1 micromolar compound + 100 micromolar galactose

Structure (SMILES): Cn1c(=O)c2c(nc(CCCCCCNC3CCc4ccccc43)n2C)n(C)c1=O (racemic) [Compound C8-6-I]
- major peak, blockade current (alpha-synuclein [1]): −68 pA
- nanopore profile (bumping peak / binding) (alpha-synuclein [1]): do not have a significant bumping peak
- AS-GFP foci / fluorescence pattern [2]: by 12 hours the peripheral halo is restored
- fluorescence pattern after compound addition to cells with preformed foci [3, 10]: By 9 hours, the peripheral location is restored and the halo reappears
- effect on preformed large foci of alpha-synuclein [3]: can cause preformed large foci of alpha-synuclein to dissipate
- level of alpha-synuclein staining in substantia nigra ([4]; ASIA + compound 3 mg/kg): reduced
- level of alpha-synuclein staining in substantia nigra ([4]; ASIA + compound 5 mg/kg): reduced
- time of resumption of growth (yeast strain 2AS; [10]): ~8 h
- time of resumption of growth (yeast strain 2AS; 10 micromolar compound added after 6 hours of 5 mM galactose and wash): about 6 hours
- increase of Ka for a 10-fold decrease in ionic strength (alpha-synuclein [5]): approximately 10 fold
- # of Binding sites (alpha-synuclein [5]; ITC in 100 mM KCl): 1
- Ka (alpha-synuclein [5]; ITC in 100 mM KCl): 560000 M⁻¹
- Ka (alpha-synuclein [5]; ITC in 1.0M KCl): 53000 M⁻¹
- # of Binding sites (alpha-synuclein [5]; [11]): 1
- # Binding sites (alpha-synuclein [5]): 1
- Ka (alpha-synuclein [5]; Table 2, ITC): 53000 M⁻¹
- Bind to N and C? (alpha-synuclein [5]): Y
- binding constants as measured by ITC, order of magnitude (alpha-synuclein [5]): ~10^5 M^−1
- degree of protein aggregation, thioflavin S staining ([6]; ASIA + compound 3 mg/kg): decreases the degree of protein aggregation
- degree of protein aggregation, thioflavin S staining ([6]; ASIA + compound 5 mg/kg): decreases the degree of protein aggregation
- growth of 2AS yeast ([7]; 0.1 micromolar compound + 5 mM galactose): normal growth
- growth of 2AS yeast [7, 12]: essentially normal
- immobility in forced swim test ([8]; ASIA + compound 3 mg/kg): improved
- success in forced swim test ([8]; ASIA + compound 3 mg/kg): improved success
- vigor in forced swim test ([8]; ASIA + compound 3 mg/kg): improved vigor
- immobility in forced swim test ([8]; ASIA + compound 5 mg/kg): further improved
- success in forced swim test ([8]; ASIA + compound 5 mg/kg): further improved success
- vigor in forced swim test ([8]; ASIA + compound 5 mg/kg): further improved vigor

Structure (SMILES): Cn1c(=O)c2c(nc(CCCCCCN3CCCC3c3cccnc3)n2C)n(C)c1=O (racemic) [Compound C8-6-N]
- major peak, blockade current (alpha-synuclein [1]): −55 pA
- nanopore profile (bumping peak / binding) (alpha-synuclein [1]): do not have a significant bumping peak
- AS-GFP foci / fluorescence pattern [2]: similar
- effect on preformed large foci of alpha-synuclein [3]: can cause preformed large foci of alpha-synuclein to dissipate
- increase of Ka for a 10-fold decrease in ionic strength (alpha-synuclein [5]): approximately 10 fold
- # of Binding sites (alpha-synuclein [5]; ITC in 100 mM KCl): 1
- Ka (alpha-synuclein [5]; ITC in 100 mM KCl): 480000 M⁻¹
- Ka (alpha-synuclein [5]; ITC in 1.0M KCl): 43000 M⁻¹
- # of Binding sites (alpha-synuclein [5]; [11]): 1
- # Binding sites (alpha-synuclein [5]): 1
- Ka (alpha-synuclein [5]; Table 2, ITC): 43000 M⁻¹
- Bind to N and C? (alpha-synuclein [5]): Y
- binding constants as measured by ITC, order of magnitude (alpha-synuclein [5]): ~10^5 M^−1
- growth of 2AS yeast [7, 12]: essentially normal

Structure (SMILES): Cn1c(=O)c2c(ncn2C)n(C)c1=O [Caffeine, caffeine, reference compound]
- formation of foci delayed until (time after induction) [2]: 9 h
- # of Binding sites (alpha-synuclein [5]; [11]): 1
- # Binding sites (alpha-synuclein [5]): 1
- Bind to N and C? (alpha-synuclein [5]): Y
- major peak, blockade current, compound alone (alpha-synuclein [9]): about −76 pA

Structure (SMILES): NC1Cc2ccccc2C1 [Compound 2-aminoindan, 2-aminoindan, reference compound]
- level of alpha-synuclein staining in substantia nigra ([4]; ASIA + compound 3 mg/kg): considerably increased
- immobility in forced swim test ([8]; ASIA + compound 3 mg/kg): significantly increases immobility
- success in forced swim test ([8]; ASIA + compound 3 mg/kg): decreased success
- vigor in forced swim test ([8]; ASIA + compound 3 mg/kg): decreased vigor

Structure (SMILES): Cn1c(=O)c2c(nc(CCCCCCc3nc4c(c(=O)n(C)c(=O)n4C)n3C)n2C)n(C)c1=O [Compound C8-6-C8]
- toxicity on WT yeast (WT yeast; 100 micromolar compound): toxic
- nanopore profile (bumping peak / binding) (alpha-synuclein [1]): predominantly bumping peaks
- increase of Ka for a 10-fold decrease in ionic strength (alpha-synuclein [5]): does not increase
- # of Binding sites (alpha-synuclein [5]; ITC in 100 mM KCl): 0.25
- Ka (alpha-synuclein [5]; ITC in 100 mM KCl): 1.8e+08 M⁻¹
- Ka (alpha-synuclein [5]; ITC in 1.0M KCl): 2e+08 M⁻¹ and 280000 M⁻¹
- # of Binding sites (alpha-synuclein [5]; [11]): 0.25
- # Binding sites (alpha-synuclein [5]): 0.25
- Ka (alpha-synuclein [5]; Table 2, ITC): 2e+08 M⁻¹
- Bind to N and C? (alpha-synuclein [5]): Y
- lag before growth rescue / reaching the growth plateau [7, 12]: about 6 hours

Structure (SMILES): CN(C)C(=N)N=C(N)N [Metformin, metformin, reference compound]
- formation of foci delayed until (time after induction) [2]: 9 h
- # of Binding sites (alpha-synuclein [5]; [11]): 1
- Kd (alpha-synuclein [5]; ITC in 1.0M KCl): 0.109 µM
- # Binding sites (alpha-synuclein [5]): 3
- Kd (alpha-synuclein [5]; Table 2, ITC): 0.111 µM
- Bind to N and C? (alpha-synuclein [5]): N
- major peak, blockade current, compound alone (alpha-synuclein [9]): about −65 pA
- growth of 2AS yeast [7, 13]: rate of growth which is similar to that shown by the WT strain

Structure (SMILES): CC(N)Cc1ccccc1 (stereo not shown) [amphetamine]
- effect on growth of WT yeast (WT yeast): no evidence of toxicity
- time at which complete filling of the cell with AS-GFP occurs [2]: 6 h
- AS-GFP foci / fluorescence pattern [2]: larger foci appear at earlier times
- growth of 2AS yeast [7, 13]: significant reduction of growth

Structure (SMILES): C[n+]1ccc(-c2cc[n+](C)cc2)cc1 [paraquat, reference compound]
- effect on growth of WT yeast (WT yeast): no evidence of toxicity
- growth of 2AS yeast [7, 13]: significant reduction of growth

Reference: US11634434B2, “Bifunctional alpha-synuclein binding agents and uses thereof” (University of Saskatchewan, priority 2016, dated 2023)
